Data: US10914725B2, “Culture medium additive, culture medium composition, and method for culturing cells or tissue using same” (NISSAN CHEMICAL INDUSTRIES, LTD., priority 2015, dated 2021)

Tests used:
Format in all cases: cell-based
[1] = system: Human liver cancer cell line HepG2; test: Evaluation of hepatotoxic substance by high content analysis (Experimental Example 9); details: for average cell number per sphere / average dead cell number in sphere / average sphere number per 20 mm^2 / projected area: 0.03 (w/v)% low-molecular agar medium, 2 days with flutamide
Procedure: (§1) By a method similar to the preparation method of medium composition of Experimental Example 1, a medium composition containing 10 (v/v) % FBS and 0.03 (w/v) % of low-molecular agar (“ultraagar Ena”, manufactured by InaFood Industry) in DMEM (manufactured by Wako Pure Chemical Industries, Ltd.) was prepared. Human liver cancer cell line HepG2 (manufactured by DS PHARMA BIOMEDICAL CO., LTD.) was suspended in the above-mentioned medium composition containing low-molecular agar at 11,000 cells/mL. The above-mentioned cell suspension was dispensed to the wells of a 96 well flat bottom ultra-low attachment surface microplate (manufactured by Corning Incorporated, #3474) at 90 μL per 1 well, and the plate was cultured in a standing state in a CO2 incubator (37° C., 5% CO2) for 3 days. On day 3 of culture, flutamide (manufactured by Sigma-Aldrich) was added by 10 μL per 1 well. Successively, the plate was further cultured in a standing state in a CO2 incubator (37° C., 5% CO2) for 2 days. As a comparison control, HepG2 cells were suspended in DMEM containing 10 (v/v) % FBS and the suspension was dispensed to a 96 well flat bottom adhesion surface microplate (manufactured by Corning Incorporated, #3585), and a similar operation was performed.
Then, a solution of […] of Hoechst 33342 (manufactured by Invitrogen) in DMEM (phenol red, L-glutamine free) (manufactured by Wako Pure Chemical Industries, Ltd.) was prepared, and added, at 10 μL per 1 well, to each culture after static culture for 5 days using the above-mentioned low-molecular agar-containing medium and comparison control, and the mixture was stood in a CO2 incubator (37° C., 5% CO2) for 45 min. Successively, a solution of 20 μg/mL Propidium Iodide (manufactured by BIOMOL) in DMEM (phenol red, L-glutamine free) (manufactured by Wako Pure Chemical Industries, Ltd.) was prepared and added at 10 μL per 1 well, and the culture medium was suspended. The plate was centrifuged at 1,500 rpm for 1 min, and high content analysis was performed by cell image analysis using a cell imaging apparatus (“ArrayScan VTI HCS Reader”, manufactured by Thermo Fisher Scientific). At that time, observation was performed with 20 fields of view per well using a ×10 objective lens, cell outline and cell nucleus were detected from Hoechst33342 fluorescence image, and dead cells were detected from propidium iodide fluorescence image. In addition, 50% inhibitory concentration (μM) of flutamide by high content analysis was calculated from the number of cells constituting the spheres, with the value without addition of flutamide as 0% sphere formation inhibitory rate.
(§2) The number of constituent cells of HepG2 cell spheres, sphere number, projected area of sphere (size) (μm^2) and the dead cell number in the sphere, obtained from the cell imaging analysis, are shown in Table 26. Furthermore, the relative cell number when the amount of luminescence without addition of the anticancer agent is 100 was determined from the measurement results of the surviving cell number by luminescence, using the intracellular ATP as an index, and shown in Table 27. In addition, the 50% inhibitory concentration (μM) of flutamide calculated from the amount of luminescence based on intracellular ATP and constituent cell number obtained by high content analysis are shown in Table 28.

[2] = system: Human liver cancer cell line HepG2; test: Evaluation of hepatotoxic substance by CellTiter-Glo cell survival assay (Experimental Example 9); details: for IC50: Homo sapiens, HepG2, cell survival assay by luminescence, read-out: 50% inhibitory concentration
Procedure: as §1
CellTiter-Glo Luminescent Cell Viability Assay (manufactured by Promega) (100 μL) was added to the low-molecular agar-containing culture medium and comparison control, the mixture was stood for 10 min at room temperature, and the amount of luminescence was measured by a microplate reader (“FlexStation 3”, manufactured by Molecular Devices) and according to the protocol recommended by Promega. The amount of luminescence of the medium alone was subtracted, whereby the number of viable cells was measured. In addition, 50% inhibitory concentration (μM) of flutamide by the amount of luminescence was calculated with the number of viable cells when flutamide was not added as 0% inhibition rate.
as §2

[3] = system: human ovarian cancer cell line SKOV3; test: Cell proliferation test by dispersing SKOV3 cells with growth factors (Experimental Example 4); details: 10 days
Procedure: By a method similar to the preparation method of medium composition in Analysis Example 1, a medium composition containing 10 (v/v) % FBS, and 0.03 (w/v) % of low-molecular agar in DMEM (manufactured by Wako Pure Chemical Industries, Ltd.) was prepared.
Then, human ovarian cancer cell line SKOV3 (manufactured by DS PHARMA BIOMEDICAL CO., LTD.) was suspended in the above-mentioned medium composition containing low-molecular agar at 37,000 cells/mL, and dispensed to the wells of a 96 well flat plane ultra-low attachment surface microplate (manufactured by Corning Incorporated, #3474) at 135 μL per 1 well. The plate was stood in a CO2 incubator (37° C., 5% CO2), and a growth factor was added the next day. A similar operation was performed with 10 (v/v) % FBS-containing DMEM free of low-molecular agar. As a growth factor, human heparin bindability epithelial cell growth factor (hHB-EGF) (manufactured by PeproTech, Inc.) at a final concentration of 30 ng/mL or 100 ng/mL, human epithelial cell growth factor (hEGF) (manufactured by PeproTech, Inc.) and human transforming growth factor α (hTGFα) (manufactured by PeproTech, Inc.) each at a final concentration of 1 ng/mL, 3 ng/mL or 10 ng/mL were added by 15 μL per 1 well.
Successively, the plate was cultured in a standing state in a CO2 incubator (37° C., 5% CO2) for 10 days. As a negative control, DMEM in an amount equal to that of a growth factor was added. CellTiter-Glo Luminescent Cell Viability Assay (manufactured by Promega) (100 μL) was added to the cell culture medium after culturing for 10 days, stood for 10 min at room temperature, and the amount of luminescence was measured by a microplate reader (“FlexStation 3”, manufactured by Molecular Devices) and according to the protocol recommended by Promega. The amount of luminescence of the medium composition alone was subtracted, whereby the number of viable cells was measured.
The relative cell number when the amount of luminescence of the negative control is 1 was determined from the amount of luminescence (corresponding to the number of SKOV3 cells) after culturing for 10 days after the addition of the growth factor, and shown in Table 11.

## CC(C)C(=O)Nc1ccc([N+](=O)[O-])c(C(F)(F)F)c1 [flutamide]
[1]; Homo sapiens, HepG2, high content analysis by cell image analysis, number of cells constituting the spheres, low-molecular agar-containing medium, read-out: 50% inhibitory concentration
  IC50: 73.4 µM
[1]; flutamide 0.8 μM
  average cell number per sphere: 7.977
  average dead cell number in sphere: 0.06
  average sphere number per 20 mm^2: 190.7
  projected area: 1988 μm^2
[1]; flutamide 4 μM
  average cell number per sphere: 8.89
  average dead cell number in sphere: 0.037
  average sphere number per 20 mm^2: 145.3
  projected area: 2180 μm^2
[1]; flutamide 20 μM
  average cell number per sphere: 9.263
  average dead cell number in sphere: 0.067
  average sphere number per 20 mm^2: 129.7
  projected area: 2403 μm^2
[1]; flutamide 100 μM
  average cell number per sphere: 3.76
  average dead cell number in sphere: 0.007
  average sphere number per 20 mm^2: 153.7
  projected area: 861 μm^2
[1]; flutamide 500 μM
  average cell number per sphere: 1.567
  average dead cell number in sphere: 1.163
  average sphere number per 20 mm^2: 7.3
  projected area: 408 μm^2
[2]; comparison control (DMEM, 10% FBS, adhesion surface plate)
  IC50: 51.7 µM
[2]; low-molecular agar containing medium
  IC50: 53.6 µM
[2]; flutamide 0.8 μM, comparison control (DMEM, 10% FBS, adhesion surface plate)
  relative cell number (no addition = 100): 100.2
[2]; flutamide 0.8 μM, low-molecular agar-containing medium
  relative cell number (no addition = 100): 109.6
[2]; flutamide 4 μM, comparison control (DMEM, 10% FBS, adhesion surface plate)
  relative cell number (no addition = 100): 109.6
[2]; flutamide 4 μM, low-molecular agar-containing medium
  relative cell number (no addition = 100): 98.7
[2]; flutamide 20 μM, comparison control (DMEM, 10% FBS, adhesion surface plate)
  relative cell number (no addition = 100): 93.5
[2]; flutamide 20 μM, low-molecular agar-containing medium
  relative cell number (no addition = 100): 89.8
[2]; flutamide 100 μM, comparison control (DMEM, 10% FBS, adhesion surface plate)
  relative cell number (no addition = 100): 22.5
[2]; flutamide 100 μM, low-molecular agar-containing medium
  relative cell number (no addition = 100): 22.4
[2]; flutamide 500 μM, comparison control (DMEM, 10% FBS, adhesion surface plate)
  relative cell number (no addition = 100): 15.4
[2]; flutamide 500 μM, low-molecular agar-containing medium
  relative cell number (no addition = 100): 8.1

## hTGFα: human transforming growth factor α (PeproTech)
[3]; growth factor 1 ng/mL, low-molecular agar 0 (w/v)%
  relative cell number (negative control = 1): 1.448
[3]; growth factor 1 ng/mL, low-molecular agar 0.03 (w/v)%
  relative cell number (negative control = 1): 1.371
[3]; growth factor 3 ng/mL, low-molecular agar 0 (w/v)%
  relative cell number (negative control = 1): 1.445
[3]; growth factor 3 ng/mL, low-molecular agar 0.03 (w/v)%
  relative cell number (negative control = 1): 1.916
[3]; growth factor 10 ng/mL, low-molecular agar 0 (w/v)%
  relative cell number (negative control = 1): 1.512
[3]; growth factor 10 ng/mL, low-molecular agar 0.03 (w/v)%
  relative cell number (negative control = 1): 2.167
